Measurements taken from patent publication US5213974A, “Fermentation process for preparing antibiotics mureidomycins A, B, C and D” (priority 1986, dated 1993).
Values after ≈ are worked out from the molar mass of the structure shown.

Key:
[1] = tested on: gram-negative bacteria, particularly bacteria of the genus Pseudomonas; assay: Antibacterial activity, summary of the MIC data; assay type: cell-based
Procedure: (§1) The minimal inhibitory concentrations (MIC) of mureidomycins A, B, C and D against various gram-positive and gram-negative bacteria were determined by the two-fold agar dilution method, using a Mueller-Hinton agar medium (produced by Difco).
From the above data, mureidomycins A, B, C and D are active against gram-negative bacteria, particularly against bacteria of the genus Pseudomonas.

[2] = tested on: Serratia marcescens SANK 73060; assay: MIC, two-fold agar dilution method, Mueller-Hinton agar; assay type: cell-based
Procedure: as §1

[3] = tested on: Klebsiella pneumoniae PCI 602; assay: as above; assay type: cell-based
Procedure: as §1

[4] = tested on: Pseudomonas aeruginosa SANK 75775; assay: as above; assay type: cell-based
Procedure: as §1

[5] = tested on: Pseudomonas aeruginosa ATCC 13388; assay: as above; assay type: cell-based
Procedure: as §1

[6] = tested on: Pseudomonas aeruginosa SANK 70479; assay: as above; assay type: cell-based
Procedure: as §1

[7] = tested on: Pseudomonas aeruginosa SANK 70579; assay: as above; assay type: cell-based
Procedure: as §1

[8] = tested on: Proteus mirabilis SANK 70461; assay: as above; assay type: cell-based
Procedure: as §1

[9] = tested on: Pseudomonas acidovorans SANK 72782; assay: as above; assay type: cell-based
Procedure: as §1

[10] = tested on: Pseudomonas aeruginosa NRRLB 1000; assay: as above; assay type: cell-based
Procedure: as §1

[11] = tested on: Pseudomonas aeruginosa SANK 70970; assay: as above; assay type: cell-based
Procedure: as §1

[12] = tested on: Pseudomonas aeruginosa SANK 71873; assay: as above; assay type: cell-based
Procedure: as §1

[13] = tested on: Staphylococcus aureus FDA 209P JC-1; assay: as above; assay type: cell-based
Procedure: as §1

[14] = tested on: Esherichia coli NIHJ JC-2; assay: as above; assay type: cell-based
Procedure: as §1

[15] = tested on: Pseudomonas aeruginosa SANK 73379; assay: as above; assay type: cell-based
Procedure: as §1

[16] = tested on: Pseudomonas aeruginosa SANK 73279; assay: as above; assay type: cell-based
Procedure: as §1

[17] = tested on: Pseudomonas aeruginosa SANK 75175; assay: as above; assay type: cell-based
Procedure: as §1

[18] = tested on: Pseudomonas aeruginosa NCTC 10490; assay: as above; assay type: cell-based
Procedure: as §1

[19] = tested on: Pseudomonas aeruginosa SANK 73375; assay: as above; assay type: cell-based
Procedure: as §1

[20] = Solubility in water and organic solvents; assay type: physicochemical
mice = assay: Toxicity in mice, intravenous; assay type: in vivo

Row | Molecule | activity against gram-negative bacteria [1] | MIC [2] [µg/mL] | MIC [3] [µg/mL] | MIC [4] [µg/mL] | MIC [5] [µg/mL] | MIC [6] [µg/mL] | MIC [7] [µg/mL] | MIC [8] [µg/mL] | MIC [9] [µg/mL] | MIC [10] [µg/mL] | MIC [11] [µg/mL] | MIC [12] [µg/mL] | MIC [13] [µg/mL] | MIC [14] [µg/mL] | MIC [15] [µg/mL] | MIC [16] [µg/mL] | MIC [17] [µg/mL] | MIC [18] [µg/mL] | MIC [19] [µg/mL] | Solubility ([20]; acetone) | also measured
1 | CSCC[C@H](NC(=O)NC(Cc1cccc(O)c1)C(=O)O)C(=O)N[C@@H](C(=O)NC=C1CC(O)C(n2ccc(=O)[nH]c2=O)O1)C(C)N(C)C(=O)[C@@H](N)Cc1cccc(O)c1 (some centres unmarked) [Mureidomycin A, mureidomycin A] | active | > 200 | 25 (≈ 29.7 µM) | 6.25 (≈ 7.43 µM) | 25 (≈ 29.7 µM) | 6.25 (≈ 7.43 µM) | < 0.1 | > 200 | > 200 | 25 (≈ 29.7 µM) | 12.5 (≈ 14.9 µM) | 6.25 (≈ 7.43 µM) | 200 (≈ 238 µM) | > 200 | 100 (≈ 119 µM) | 12.5 (≈ 14.9 µM) | 25 (≈ 29.7 µM) | 0.4 (≈ 0.476 µM) | 12.5 (≈ 14.9 µM) | slightly soluble | Solubility ([20]; benzene): insoluble; Solubility ([20]; chloroform): insoluble; Solubility ([20]; ethyl acetate): insoluble; Solubility ([20]; methanol): Soluble; Solubility ([20]; water): Soluble; toxicity (mice; mice, 400 mg/kg intravenously): No toxicity was observed
2 | CSCC[C@H](NC(=O)NC(Cc1cccc(O)c1)C(=O)O)C(=O)N[C@@H](C(=O)N/C=C1\CC(O)C(N2CCC(=O)NC2=O)O1)C(C)N(C)C(=O)[C@@H](N)Cc1cccc(O)c1 (some centres unmarked) [Mureidomycin B, mureidomycin B] | active | > 200 | 25 (≈ 29.7 µM) | 200 (≈ 237 µM) | 50 (≈ 59.3 µM) | 12.5 (≈ 14.8 µM) | 0.2 (≈ 0.237 µM) | > 200 | 200 (≈ 237 µM) | 50 (≈ 59.3 µM) | 25 (≈ 29.7 µM) | 25 (≈ 29.7 µM) | > 200 | > 200 | 200 (≈ 237 µM) | 25 (≈ 29.7 µM) | 50 (≈ 59.3 µM) | 0.8 (≈ 0.949 µM) | 25 (≈ 29.7 µM) | slightly soluble | Solubility ([20]; benzene): insoluble; Solubility ([20]; chloroform): insoluble; Solubility ([20]; ethyl acetate): insoluble; Solubility ([20]; methanol): Soluble; Solubility ([20]; water): Soluble; toxicity (mice; mice, 400 mg/kg intravenously): No toxicity was observed
3 | CSCC[C@H](NC(=O)NC(Cc1cccc(O)c1)C(=O)O)C(=O)N[C@@H](C(=O)NC=C1CC(O)C(n2ccc(=O)[nH]c2=O)O1)C(C)N(C)C(=O)[C@H](Cc1cccc(O)c1)NC(=O)CN (some centres unmarked) [Mureidomycin C, mureidomycin C] | active | > 200 | 12.5 (≈ 13.9 µM) | 1.56 (≈ 1.74 µM) | 3.13 (≈ 3.49 µM) | 1.56 (≈ 1.74 µM) | < 0.1 | > 200 | > 200 | 3.13 (≈ 3.49 µM) | 1.56 (≈ 1.74 µM) | 1.56 (≈ 1.74 µM) | > 200 | > 200 | 6.25 (≈ 6.96 µM) | 1.56 (≈ 1.74 µM) | 3.13 (≈ 3.49 µM) | 0.4 (≈ 0.445 µM) | 3.13 (≈ 3.49 µM) | slightly soluble | Solubility ([20]; benzene): insoluble; Solubility ([20]; chloroform): insoluble; Solubility ([20]; ethyl acetate): insoluble; Solubility ([20]; methanol): Soluble; Solubility ([20]; water): Soluble; toxicity (mice; mice, 400 mg/kg intravenously): No toxicity was observed
4 | mureidomycin D | active | > 200 | 25 | 6.25 | 6.25 | 6.25 | 0.2 | > 200 | 100 | 6.25 | 3.13 | 6.25 | > 200 | > 200 | 50 | 6.25 | 12.5 | 1.56 | 6.25 | slightly soluble | Solubility ([20]; benzene): insoluble; Solubility ([20]; chloroform): insoluble; Solubility ([20]; ethyl acetate): insoluble; Solubility ([20]; methanol): Soluble; Solubility ([20]; water): Soluble; toxicity (mice; mouse, in vivo, iv, 400 mg/kg): No toxicity was observed
